“Also recorded” adds a separate entry of the source. Where a SMILES comes first, the peptide text is derived from it. [ ]: non-standard residue; d: D form.
What was measured:
[1] = test system: PlcR regulon (plcA promoter-lacZ fusion); test: Competition studies of PapR7-derived peptides with endogenous PapR, β-galactosidase (lacZ reporter) assay; assay type: cell-based, B. thuringiensis 407 Cry- plcA'Z (Bt A'Z); conditions: Bt A'Z; for reduction of plcA'Z activity: 2.5 μM peptide, added at late-exponential phase (OD600 1.8 ± 0.1), normalized to untreated cells, mean; for reduction of plcA'Z activity / effect on plcA'Z activation / PlcR regulon activity after 24 h (in words) / effect on plcA'Z activation at low cell density (in words): n = 9; for IC50: late-exponential phase (OD600 1.8 ± 0.1), competition with endogenous PapR, mean ± SEM, SEM, read-out: IC50, lacZ-based reporter assay; for effect on plcA'Z activation / PlcR regulon activity after 24 h (in words) / effect on plcA'Z activation at low cell density (in words): 10 μM peptide; for effect on plcA'Z activation / PlcR regulon activity after 24 h (in words): added at OD600 0.1 ± 0.03, harvested after 24 h; for effect on plcA'Z activation at low cell density (in words): added at OD600 0.1 ± 0.03, quantified after 2.5 h; for class of inhibitory activity throughout the competition studies: plcA'lacZ, summary of the competition studies
Protocol: Bacterial strains used in this study: B. thuringiensis 407 Cry ^- plcA′Z (Bt A’Z) and the PapR null-mutant 407 Cry ^- ΔpapR plcA’Z (Bt ΔpapR A’Z) strains, containing a transcriptional fusion between the promoter of plcA and the lacZ reporter gene (as described previously; [Gominet et al., 2001]; [Slamti and Lereclus, 2002]); B. cereus strain ATCC 14579 ([Ivanova et al., 2003]). Unless otherwise noted, cells were grown in modified LB medium (16 g/L tryptone, 8 g/L yeast extract, 5 g/L NaCl) at 37°C and stored at −80°C in LB containing 25% glycerol. Kanamycin (200 μg/mL) was used for the selection of B. thuringiensis.
Bt A’Z cells were grown overnight in LB medium. The cells were diluted 10^–3 in modified LB to a final volume of 1 L and incubated at 37°C with shaking (200 rpm) until the end of the lag or late-exponential of bacterial growth (OD600 0.1 ± 0.03; 1.8 ± 0.1, respectively). Different concentrations of synthetic peptides were added to 2 ml aliquots of culture and incubated for various times (1–24 h) before centrifugation (Eppendorf centrifuge R5810, 4000 rpm for 5 min) and quantification of β-galactosidase activity.
β-galactosidase activity was measured as described previously ([Yang et al., 2017]), with minor modifications. Briefly, 200 μL aliquots from 2 ml treated cultures were added in triplicate to a clear 96-well microtiter plate, and then OD600 was measured and β-galactosidase activity was assayed. The final results were reported as percentage of activation, which is the ratio between the Miller units obtained after addition of the PapR7 analogs. In Bt ΔpapR A’Z strain, the plcA promoter activity was very low and considered as a baseline. In Bt A’Z strain, the untreated bacteria were considered as 100% of activation and the results were normalized accordingly. Each assay was repeated at least three times.

B. cereus ATCC 14579 = assay type: cell-based, Bacillus cereus; conditions: n = 9; for IC50: supernatant of B. cereus ATCC 14579 cultures treated at OD600 0.1 ± 0.03 for 2.5 h, 1% human red blood cells, 30 min, 37°C, absorbance at 420 nm, mean ± SEM, SEM, read-out: IC50, hemolytic assay; for reduction of hemolytic activity: 10 μM peptide, B. cereus ATCC 14579 treated at OD600 0.1 ± 0.03, human red blood cells, normalized to untreated
Protocol: Bt A’Z or B. cereus ATCC 14579 cells were grown overnight in LB medium. The cells were diluted 10^–3 in modified LB to a final volume of 1 liter and incubated at 37°C with shaking (200 rpm) until the end of the lag phase of bacterial growth (OD600 0.1 ± 0.03). Different concentrations of synthetic peptides were added to 2 ml aliquots of culture and incubated for 2.5 h before centrifugation (Eppendorf centrifuge R5810, 4000 rpm for 5 min), separation and filtration (0.2 μm filter) of the supernatants of the treated cultures. Analyses of hemolytic activity were conducted as previously described using human red blood cells ([Tal-Gan et al., 2013b]; [Lobel et al., 2015]). Bacterial supernatants were serially diluted in Tris-buffered saline (pH 7.2, 10 mM Tris–HCl, 155 mM NaCl) with 1% human red blood cells (hRBC) suspension and were incubated for 30 min at 37°C. Hemolytic activities were measured by monitoring the absorbance at 420 nm.

[2] = molecular target: PlcR of B. thuringiensis 407 Cry- (B. thuringiensis (endogenous in strain 407 Cry- plcA'Z))
[3] = molecular target: PlcR of B. cereus ATCC 14579 (B. cereus (endogenous in strain ATCC 14579))
[4] = molecular target: PlcR of B. cereus ATCC 14579 (B. cereus (endogenous in strain ATCC 14579)); remark: listed apart in the source
[5] = molecular target: PlcR of B. thuringiensis 407 Cry- (B. thuringiensis (endogenous in strain 407 Cry- plcA'Z)); remark: listed apart in the source
[6] = molecular target: PlcR of B. cereus ATCC 14579 (B. cereus (endogenous in strain ATCC 14579)); remark: listed apart in the source

Compound	reduction of plcA'Z activity [1]	IC50 [1] [nM]	IC50 (B. cereus ATCC 14579) [nM]	effect on plcA'Z activation at low cell density (in words) [1]	class of inhibitory activity throughout the competition studies [1]	reduction of plcA'Z (β-galactosidase) activity in Bt A'Z cells, 2.5 μM peptide added at late-exponential phase; the pair that is blocked: endogenous PapR with PlcR [2] [%]	other results
CC(C)C[C@H](NC(=O)[C@H](CC(=O)O)NC(=O)[C@H](C)N)C(=O)N1CCC[C@H]1C(=O)N[C@@H](Cc1ccccc1)C(=O)N[C@H](CCC(=O)O)C(=O)N[C@@H](Cc1ccccc1)C(N)=O [PapR7-dE6, reference compound] (H-ADLPF[dE]F-NH2; N-terminus assumed)	65%	977 ± 42	1050 ± 89				
CC(C)C[C@H](NC(=O)[C@H](CC(=O)O)NC(=O)[C@H](C)N)C(=O)N1CCC[C@H]1C(=O)N[C@@H](Cc1ccccc1)C(=O)N[C@H](CCC(=O)O)C(=O)N[C@@H](C)C(N)=O [PapR7-dE6:F7A] (H-ADLPF[dE]A-NH2; N-terminus assumed)	65%	2570 ± 203	2500 ± 212	blocked plcA’Z activation	very potent inhibitors		effect on plcA'Z activation / PlcR regulon activity after 24 h (in words) [1]: blocked plcA’Z activation; also recorded: blocked the PlcR regulon activity
CC(C)C[C@H](NC(=O)[C@H](CC(=O)O)NC(=O)[C@H](C)N)C(=O)N1CCC[C@H]1C(=O)N[C@@H](Cc1ccccc1)C(=O)N[C@H](CCC(=O)O)C(=O)N[C@H](Cc1ccccc1)C(N)=O [PapR7-dE6:dF7] (H-ADLPF[dE][dF]-NH2; N-terminus assumed)	71%	1680 ± 170	1380 ± 117	blocked plcA’Z activation	very potent inhibitors		effect on plcA'Z activation / PlcR regulon activity after 24 h (in words) [1]: blocked plcA’Z activation; also recorded: blocked the PlcR regulon activity
CC(C)C[C@H](NC(=O)[C@H](CC(=O)O)NC(=O)[C@H](C)N)C(=O)N1CCC[C@H]1C(=O)N[C@@H](Cc1ccccc1)C(=O)N[C@@H](CCC(=O)O)C(=O)N[C@H](Cc1ccccc1)C(N)=O [PapR7-dF7, reference compound] (H-ADLPFE[dF]-NH2; N-terminus assumed)	63%	1220 ± 72	3040 ± 206				
ADLAFEA [PapR7-P4A:F7A, second-generation PapR7-derived peptide ADLAFEA]	approximately 40%			drastic reduction in plcA’Z activity	median to high inhibitory activities		reduction of hemolytic activity (B. cereus ATCC 14579): ~60%
ADLAFEdF [PapR7-P4A:dF7, second-generation PapR7-derived peptide ADLAFEdF]	approximately 40%			drastic reduction in plcA’Z activity	median to high inhibitory activities		reduction of hemolytic activity (B. cereus ATCC 14579): approximately 83%
PapR7-E6A:F7A (peptide)						40	reduction of the hemolytic activity (human red blood cells) of supernatants of B. cereus ATCC 14579 cultures treated with 10 μM peptide; the pair that is blocked: native PapR with PlcR [3]: 60%
PapR7-E6A:dF7 (peptide)						40	inhibition of the hemolytic activity (human red blood cells) of supernatants of B. cereus ATCC 14579 cultures treated with 10 μM peptide; the pair that is blocked: native PapR with PlcR [4]: 83%
PapR7-F7A (peptide)						70	IC50 of inhibition of plcA'Z (β-galactosidase) activity in Bt A'Z cells, lacZ-based reporter assay; the pair that is blocked: endogenous PapR with PlcR [5]: 1680 nM; IC50 of inhibition of the hemolytic activity (human red blood cells) of supernatants of treated B. cereus ATCC 14579 cultures; the pair that is blocked: native PapR with PlcR [6]: 2720 nM

Source: article PMC6568020, “Elucidating the Hot Spot Residues of Quorum Sensing Peptidic Autoinducer PapR by Multiple Amino Acid Replacements” (Frontiers in Microbiology, 2019)
